Measurements taken from patent publication US20140303092A1 (CHIMERIX, INC., priority 2011, published 2014).

Assay: Study HDP-CDV-201: safety and tolerability (adverse events, laboratory abnormalities, discontinuations)
Type: in vivo, human (adult allogeneic HSCT recipients)
Method: Clinical Studies of HDP-CDV were performed and described in detail in the following Examples. For example, HDP-CDV-201 is a placebo-controlled, dose-escalating trial in HSCT CMV (R+) recipients, evaluating the ability of HDP-CDV to prevent or control CMV infection was carried out. Five cohorts were established in which participants or subjects received either placebo or the HDP-CDV orally, in doses ranging from 40 mg weekly (QW) to 200 mg twice weekly (BIW). Subjects who were post-HSCT were enrolled at the time of engraftment and randomized to HDP-CDV or placebo (3 to 1 ratio) and received blinded therapy until approximately 100 day post-transplantation. HDP-CDV doses were 40 mg QW, 100 mg QW, 200 mg QW, 200 mg BIW and 100 mg BIW. Escalation to the next dose was decided by the data monitoring committee after review of the safety data from the previous Cohort. Subjects who developed CMV disease or CMV infection requiring pre-emptive therapy with local standard of care were discontinued from blinded therapy and followed for 4 weeks. Subjects who completed treatment with blinded therapy were followed for 8 weeks post-therapy.
Data from Study HDP-CDV-201 also provided characterization of the safety and tolerability profile of HDP-CDV when administered for the prevention or control of CMV infection in high risk (R^+) post-HSCT adult subjects.
The Safety population (SAFETY) included all randomized subjects who took at least one dose of study treatment. This population was used to summarize safety outcomes based on the treatment actually received, in cases where a subject was treated contrary to the randomization schedule.
The safety and tolerability profile of HDP-CDV, including subject demographics and Baseline characteristics; the AE profile; and laboratory abnormalities of interest were analyzed in the cohorts followed in this investigation.
Subjects completing the treatment period received a full course of study medication; those completing the entire study attended visits through 8 weeks of follow up. Subjects who discontinued treatment may have done so for protocol specified reasons (e.g. development of clinically significant CMV infection requiring preemptive treatment with excluded anti-CMV medications) or for other reasons (e.g., withdrawal, adverse events, loss to follow-up). The disposition of subjects in Study HDP-CDV-201 during the double-blind, placebo-controlled treatment period (through Week 11) is listed by dosing Cohort in TABLE 23.
Adverse events were examined by severity to ensure that all safety signals were identified in this study population. Because of the frequency of events in HSCT recipients, particular attention was given to evaluation of Grade 3 […], 4 (severe), and 5 (fatal) adverse events.
Only those preferred terms for which at least one Grade 3 or higher event was experienced in any treatment group are listed. Cytomegalovirus-related AEs are excluded from this analysis.
HDP-CDV is a lipid conjugate of CDV. Because CDV is known to have adverse effects on renal function and bone marrow, decreased GFR and persistent neutropenia were identified as AEs of special interest. Key renal and hematological (TABLE 30) laboratory parameters were measured and listed below by Study HDP-CDV-201 treatment groups. TABLE 30 includes abnormal levels of serum creatinine, neutrophils, platelets, WBCs, and hemoglobin and includes data at Screening and during the treatment period.
A common metric for unit based dosing of medications is by weight (mg/kg). When the distribution of weights was examined for all subjects participating in the study, the median was 78 kg and the lower 25th percentile weight was approximately 65 kg, which translates to a cut-off of ˜3 mg/kg for a 200 mg total weekly dose. Based upon this approach, a cut-off of 3 mg/kg was used to assess the frequency of diarrhea and associated GI AEs reported for the subjects in Cohorts 3 or 4a (TABLE 40).

CCCCCCCCCCCCCCCCOCCCOP(=O)(O)COC(CO)Cn1ccc(N)nc1=O (stereo not drawn) [HDP-CDV]
Abnormal ALT >3-5x ULN, Screening, subjects (Cohort 3, >3.0 mg/kg/wk): 0
Abnormal ALT >5-10x ULN, Any Time Between Week 2 and Week 10, subjects (Cohort 3, >3.0 mg/kg/wk): 0
Abnormal ALT >5-10x ULN, Screening, subjects (Cohort 3, >3.0 mg/kg/wk): 0
Abnormal ALT >10-20x ULN, Any Time Between Week 2 and Week 10, subjects (Cohort 3, >3.0 mg/kg/wk): 0
Abnormal ALT >10-20x ULN, Screening, subjects (Cohort 3, >3.0 mg/kg/wk): 0
Abnormal ALT >20x ULN, Any Time Between Week 2 and Week 10, subjects (Cohort 3, >3.0 mg/kg/wk): 0
Abnormal ALT >20x ULN, Screening, subjects (Cohort 3, >3.0 mg/kg/wk): 0
Abnormal ALT >3-5x ULN, Any Time Between Week 2 and Week 10, subjects (Cohort 3, ≦3.0 mg/kg/wk): 3 (12.5%)
Abnormal ALT >3-5x ULN, Screening, subjects (Cohort 3, ≦3.0 mg/kg/wk): 0
Abnormal ALT >5-10x ULN, Any Time Between Week 2 and Week 10, subjects (Cohort 3, ≦3.0 mg/kg/wk): 5 (20.8%)
Abnormal ALT >5-10x ULN, Screening, subjects (Cohort 3, ≦3.0 mg/kg/wk): 0
Abnormal ALT >10-20x ULN, Any Time Between Week 2 and Week 10, subjects (Cohort 3, ≦3.0 mg/kg/wk): 0
Abnormal ALT >10-20x ULN, Screening, subjects (Cohort 3, ≦3.0 mg/kg/wk): 0
Abnormal ALT >20x ULN, Any Time Between Week 2 and Week 10, subjects (Cohort 3, ≦3.0 mg/kg/wk): 1 (4.2%)
Abnormal ALT >20x ULN, Screening, subjects (Cohort 3, ≦3.0 mg/kg/wk): 0
Grade of hepatobiliary AE hepatomegaly, subject 4019 (Cohort 4): 1
Grade of hepatobiliary AE hyperbilirubenemia, subject 4001 (Cohort 4): 2
Grade of hepatobiliary AE hyperbilirubinemia, subject 4014 (Cohort 4): 4
Grade of hepatobiliary AE hyperbilirubinemia, subject 4041 (Cohort 4): 1
Grade of hepatobiliary AE jaundice, subject 4002 (Cohort 4): 1
Grade of hepatobiliary AE worsening hyperbilirubinemia, subject 4004 (Cohort 4): 1
Outcome of hepatobiliary AE hepatomegaly, subject 4019 (Cohort 4): recovered/resolved
Outcome of hepatobiliary AE hyperbilirubenemia, subject 4001 (Cohort 4): not recovered/not
Outcome of hepatobiliary AE hyperbilirubinemia, subject 4014 (Cohort 4): not recovered/not
Outcome of hepatobiliary AE hyperbilirubinemia, subject 4041 (Cohort 4): recovered/resolved
Outcome of hepatobiliary AE jaundice, subject 4002 (Cohort 4): not recovered/not
Outcome of hepatobiliary AE worsening hyperbilirubinemia, subject 4004 (Cohort 4): recovered/resolved
Relationship of hepatobiliary AE hepatomegaly, subject 4019 (Cohort 4): not related
Relationship of hepatobiliary AE hyperbilirubenemia, subject 4001 (Cohort 4): not related
Relationship of hepatobiliary AE hyperbilirubinemia, subject 4014 (Cohort 4): not related
Relationship of hepatobiliary AE hyperbilirubinemia, subject 4041 (Cohort 4): not related
Relationship of hepatobiliary AE jaundice, subject 4002 (Cohort 4): not related
Relationship of hepatobiliary AE worsening hyperbilirubinemia, subject 4004 (Cohort 4): not related
subjects discontinued due to neutropenia (Cohort 4): 0 subject(s)
ALT (Screening) >3 × ULN-5 × ULN, subjects (Cohort 4, 200 mg BIW): 2 (6.7%)
ALT (Screening) >5 × ULN-10 × ULN, subjects (Cohort 4, 200 mg BIW): 2 (6.7%)
ALT (Screening) >10 × ULN-20 × ULN, subjects (Cohort 4, 200 mg BIW): 0
ALT (Screening) >20 × ULN, subjects (Cohort 4, 200 mg BIW): 0
ALT (any time during therapy) >3 × ULN-5 × ULN, subjects (Cohort 4, 200 mg BIW): 4 (13.8%)
ALT (any time during therapy) >5 × ULN-10 × ULN, subjects (Cohort 4, 200 mg BIW): 6 (20.7%)
ALT (any time during therapy) >10 × ULN-20 × ULN, subjects (Cohort 4, 200 mg BIW): 2 (6.9%)
ALT (any time during therapy) >20 × ULN, subjects (Cohort 4, 200 mg BIW): 0
AST (Screening) >3 × ULN-5 × ULN, subjects (Cohort 4, 200 mg BIW): 1 (3.3%)
AST (Screening) >5 × ULN-10 × ULN, subjects (Cohort 4, 200 mg BIW): 0
AST (Screening) >10 × ULN-20 × ULN, subjects (Cohort 4, 200 mg BIW): 0
AST (Screening) >20 × ULN, subjects (Cohort 4, 200 mg BIW): 0
AST (any time during therapy) >3 × ULN-5 × ULN, subjects (Cohort 4, 200 mg BIW): 6 (20.7%)
AST (any time during therapy) >5 × ULN-10 × ULN, subjects (Cohort 4, 200 mg BIW): 0
AST (any time during therapy) >10 × ULN-20 × ULN, subjects (Cohort 4, 200 mg BIW): 0
AST (any time during therapy) >20 × ULN, subjects (Cohort 4, 200 mg BIW): 0
Alkaline Phosphatase (Screening) >2.5-5.0 × ULN, subjects (Cohort 4, 200 mg BIW): 0
Alkaline Phosphatase (Screening) >5.0-20.0 × ULN, subjects (Cohort 4, 200 mg BIW): 0
Alkaline Phosphatase (Screening) >20.0 × ULN, subjects (Cohort 4, 200 mg BIW): 0
Alkaline Phosphatase (Screening) >ULN-[…] ULN, subjects (Cohort 4, 200 mg BIW): 7 (23.3%)
Alkaline Phosphatase (any time during therapy) >2.5-5.0 × ULN, subjects (Cohort 4, 200 mg BIW): 0
Alkaline Phosphatase (any time during therapy) >5.0-20.0 × ULN, subjects (Cohort 4, 200 mg BIW): 0
Alkaline Phosphatase (any time during therapy) >20.0 × ULN, subjects (Cohort 4, 200 mg BIW): 0
Alkaline Phosphatase (any time during therapy) >ULN-[…] ULN, subjects (Cohort 4, 200 mg BIW): 11 (37.9%)
GI AE Leading to Study Drug Discontinuation: Abdominal pain, subjects (Cohort 4, 200 mg BIW): 1 (3.3%)
GI AE Leading to Study Drug Discontinuation: Diarrhoea, subjects (Cohort 4, 200 mg BIW): 7 (23.3%)
GI AE Leading to Study Drug Discontinuation: Dyspepsia, subjects (Cohort 4, 200 mg BIW): 0
GI AE Leading to Study Drug Discontinuation: Nausea, subjects (Cohort 4, 200 mg BIW): 1 (3.3%)
GI AE Leading to Study Drug Discontinuation: Vomiting, subjects (Cohort 4, 200 mg BIW): 0
GI AEs Leading to Study Drug Discontinuation: Total subjects discontinued (Cohort 4, 200 mg BIW): 9 (30.0%)
Gastrointestinal AE Abdominal discomfort, subjects (Cohort 4, 200 mg BIW): 0
Gastrointestinal AE Abdominal distention, subjects (Cohort 4, 200 mg BIW): 1 (3.3%)
Gastrointestinal AE Abdominal pain upper, subjects (Cohort 4, 200 mg BIW): 3 (10.0%)
Gastrointestinal AE Abdominal pain, subjects (Cohort 4, 200 mg BIW): 11 (36.7%)
Gastrointestinal AE Constipation, subjects (Cohort 4, 200 mg BIW): 3 (10.0%)
Gastrointestinal AE Diarrhoea, subjects (Cohort 4, 200 mg BIW): 21 (70.0%)
Gastrointestinal AE Diverticulum intestinal haemorragic, subjects (Cohort 4, 200 mg BIW): 0
Gastrointestinal AE Dyspepsia, subjects (Cohort 4, 200 mg BIW): 1 (3.3%)
Gastrointestinal AE Dysphagia, subjects (Cohort 4, 200 mg BIW): 0
Gastrointestinal AE Epigastric discomfort, subjects (Cohort 4, 200 mg BIW): 0
Gastrointestinal AE Flatulence, subjects (Cohort 4, 200 mg BIW): 3 (10.0%)
Gastrointestinal AE GERD, subjects (Cohort 4, 200 mg BIW): 2 (6.7%)
Gastrointestinal AE Gastritis, subjects (Cohort 4, 200 mg BIW): 0
Gastrointestinal AE Haematochezia, subjects (Cohort 4, 200 mg BIW): 0
Gastrointestinal AE Haemorroids, subjects (Cohort 4, 200 mg BIW): 2 (6.7%)
Gastrointestinal AE Large intestinal ulcer, subjects (Cohort 4, 200 mg BIW): 0
Gastrointestinal AE Nausea, subjects (Cohort 4, 200 mg BIW): 11 (36.7%)
Gastrointestinal AE Odynophagia, subjects (Cohort 4, 200 mg BIW): 1 (3.3%)
Gastrointestinal AE Oesophagitis, subjects (Cohort 4, 200 mg BIW): 0
Gastrointestinal AE Retching, subjects (Cohort 4, 200 mg BIW): 0
Gastrointestinal AE Vomiting, subjects (Cohort 4, 200 mg BIW): 8 (26.7%)
Hepatobiliary clinical AE Cholelithiasis, subjects (Cohort 4, 200 mg BIW): 0
Hepatobiliary clinical AE Hepatomegaly, subjects (Cohort 4, 200 mg BIW): 1 (3.3%)
Hepatobiliary clinical AE Hyperbilirubinaemia, subjects (Cohort 4, 200 mg BIW): 5 (16.7%)
Hepatobiliary clinical AE Jaundice, subjects (Cohort 4, 200 mg BIW): 1 (3.3%)
Hepatobiliary clinical AE Liver injury, subjects (Cohort 4, 200 mg BIW): 1 (3.3%)
Intensity of Gastrointestinal AEs, Grade 1, subjects (Cohort 4, 200 mg BIW): 3 (10.0%)
Intensity of Gastrointestinal AEs, Grade 2, subjects (Cohort 4, 200 mg BIW): 13 (43.3%)
Intensity of Gastrointestinal AEs, Grade 3, subjects (Cohort 4, 200 mg BIW): 10 (33.3%)
Intensity of Gastrointestinal AEs, Grade 4, subjects (Cohort 4, 200 mg BIW): 0
Intensity of Gastrointestinal AEs, Grade 5, subjects (Cohort 4, 200 mg BIW): 1 (3.3%)
Serum ALT level, Median fold increase from Baseline at Follow-up Week 1 (Cohort 4, 200 mg BIW): 1.87 fold
Serum ALT level, Median fold increase from Baseline at Follow-up Week 4 (Cohort 4, 200 mg BIW): 1.34 fold
Serum ALT level, Peak Median fold increase from Baseline (Cohort 4, 200 mg BIW): 3.55 fold
Subjects completed study (Cohort 4, 200 mg BIW): 6 (20.0%) n (%)
Total Bilirubin (Screening) >1-[…] ULN, subjects (Cohort 4, 200 mg BIW): 1 (3.3%)
Total Bilirubin (Screening) >1.5-3 × ULN, subjects (Cohort 4, 200 mg BIW): 0
Total Bilirubin (Screening) >3-10 × ULN, subjects (Cohort 4, 200 mg BIW): 0
Total Bilirubin (Screening) >10 × ULN, subjects (Cohort 4, 200 mg BIW): 0
Total Bilirubin (any time during therapy) >1-[…] ULN, subjects (Cohort 4, 200 mg BIW): 3 (10.3%)
Total Bilirubin (any time during therapy) >1.5-3 × ULN, subjects (Cohort 4, 200 mg BIW): 1 (3.4%)
Total Bilirubin (any time during therapy) >3-10 × ULN, subjects (Cohort 4, 200 mg BIW): 1 (3.4%)
Total Bilirubin (any time during therapy) >10 × ULN, subjects (Cohort 4, 200 mg BIW): 0
incidence of diarrhea (Cohort 4, 200 mg BIW): 70%
Abdominal pain leading to study drug withdrawal (Cohort 4, 200 mg BIW, N = 30): 1 (3.3%)
All AEs leading to withdrawal (Cohort 4, 200 mg BIW, N = 30): 18 (60.0%)
Diarrhoea leading to study drug withdrawal (Cohort 4, 200 mg BIW, N = 30): 7 (23.3%)
